From PubChem BioAssay AID1035470 (Broad Institute, 2014)
Records with an inconclusive call do not appear. Activity calls are given as the source filed them.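 How the source made its calls: active means compound lowering the normal-ribosome reporter at least twice as much as the humanized-ribosome reporter, growth loss under a set limit; inconclusive means no clear call, values can overlap the other calls; inactive means the rest.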

System: E. coli WT-GFP vs G2058-humanized RFP, fluorescence, 24 h
Assay: E. coli strain growth, wild-type against G2058 humanized RFP mutant – G2058 mutant RFP vs wild-type GFP, cherry-pick, two tests, dose response (AID 1035470)
[1] = measured here: G2058 humanized mutant RFP growth
[2] = E. coli WT-GFP vs G2058-humanized RFP mixed culture, total growth OD600, 24 h

SMILES | AC50 | AC50 [1] [µM] | AC50 [2] [µM]
COc1cccc(C(=O)C2CCCN(C/C=C/c3ccccc3OC)C2)c1 (configuration not stated) | > 100 µM (inactive) | > 100 | 
CC(C)(C)CC(=O)Nc1ccccc1N1CCN(c2ccccc2)CC1 | > 100 µM (inactive) |  | 
Cc1ccc(-c2nc3ccc(NS(=O)(=O)c4ccccc4)cc3[nH]2)o1 | > 100 µM (inactive) |  | 
COc1ccc(NC(=O)CSc2n[nH]c(-c3ccncc3)n2)c([N+](=O)[O-])c1 |  |  | > 100
CN(C)S(=O)(=O)N1CCN(c2ccccc2Cl)CC1 | > 100 µM (inactive) |  | > 100
CN1CCN(c2nc(Nc3ccc(O)cc3)nc3ccccc23)CC1 | > 100 µM (inactive) |  | > 100
CCN(CC)C(=O)c1sc2nc(-c3ccccc3)ccc2c1N | > 100 µM (inactive) | > 100 | 
COc1ccccc1CNC(=O)CN1C(=O)NC(c2ccccc2)(c2ccccc2)C1=O | > 100 µM (inactive) |  | > 100
Cc1ccccc1S(=O)(=O)c1cc2ccccc2nc1N |  |  | > 100
COc1ccccc1N1CCN(Cc2ccc(OC)c3ccccc23)CC1 |  |  | > 100
CCN(CC)CC(=O)Nc1ccc(-c2ccc(NC(=O)CN(CC)CC)c(OC)c2)cc1OC | > 100 µM (inactive) |  | > 100
NS(=O)(=O)c1ccc(Nc2c([N+](=O)[O-])cncc2[N+](=O)[O-])cc1 | > 100 µM (inactive) |  | 
COc1ccc(N(CCC(=O)O)S(=O)(=O)c2ccc(C)cc2C)cc1 | > 100 µM (inactive) |  | > 100
NC(=O)CSc1nc2cc([N+](=O)[O-])ccc2n1-c1cccc(C(F)(F)F)c1 | > 100 µM (inactive) |  | > 100
Cc1cccc(Nc2nc(-c3ccc(F)cc3)cs2)n1 | > 100 µM (inactive) |  | > 100
O=C1c2ccccc2C(c2nnnn2Cc2ccccc2)N1Cc1cccc(F)c1 (configuration not stated) |  |  | > 100
COC(C(=O)Nc1ccnn1C1CCN(Cc2ccc(Cl)s2)CC1)c1ccccc1 (configuration not stated) | > 100 µM (inactive) | > 100 | 
CCn1c(COc2cccc(OC)c2)nnc1SCC(=O)Nc1cc(OC)ccc1OC |  | 19.4 | 
CC1C=Cc2ccccc2N1C(=O)c1ccccc1 (configuration not stated) | > 100 µM (inactive) |  | 
O=C(NCc1ccco1)c1ccc(COc2cccc3ccccc23)cc1 | > 100 µM (inactive) |  | > 100
Cc1onc(-c2ccccc2Cl)c1C(=O)Nc1ccc(Cl)cn1 |  |  | > 100

SMILES | AC50 | AC50 [1] [µM] | AC50 [2] [µM]
Cc1ccc(Nc2cc(C(=O)NCCCN3CCOCC3)c3ccccc3n2)cc1C | > 100 µM (inactive) |  | > 100
COc1ccc(NC(=O)c2sccc2-n2cccc2)cc1 | > 100 µM (inactive) |  | > 100
CC1CCCCN1CC(O)COCCC12CC3CC(CC(C3)C1)C2 (configuration not stated) | > 100 µM (inactive) |  | > 100
COc1cccc(S(=O)(=O)N2CCCCN3[C@H](C2)[C@H](c2ccc(C#CC(C)C)cc2)[C@@H]3CO)c1 | > 100 µM (inactive) |  | 
COc1cccc(S(=O)(=O)N2CCCCN3[C@H](CO)[C@H](c4ccc(C#CC(C)C)cc4)[C@@H]3C2)c1 | > 100 µM (inactive) |  | > 100
CC1CCN(c2ccc3nnc(CCC(=O)Nc4cccc(F)c4)n3n2)CC1 | > 100 µM (inactive) |  | > 100
CCOC(=O)c1ccc(NC(=O)COc2ccc(CNCCO)cc2OCC)cc1 | > 100 µM (inactive) |  | 
CC(C)(C)C1CCC(OC(=O)C[N+]2(C)CCCCC2)CC1 (configuration not stated) | > 100 µM (inactive) |  | > 100
COc1ccc(NC(=O)Nc2cccc3c2O[C@H](CN(C)S(=O)(=O)c2ccc(Cl)cc2)[C@@H](C)CN([C@H](C)CO)C3=O)cc1 | > 100 µM (inactive) |  | 
Cc1ccc(-c2c(=O)n(O)c3ccccc3[n+]2[O-])cc1 |  | > 100 | 
C[C@H]1CN([C@@H](C)CO)C(=O)CCCn2nncc2CO[C@@H]1CN(C)Cc1ccccc1C(F)(F)F |  | 6.94 | > 100
O=S1(=O)c2ccc(Br)cc2OCCC2CCCCN21 (configuration not stated) | > 100 µM (inactive) |  | > 100
CN(C)CCNc1ncnc2c1sc1nc(N3CCCC3)c3c(c12)CC(C)(C)OC3 | > 100 µM (inactive) |  | > 100
Cc1nc(SCC(=O)Nc2ccc3c(c2)OCCO3)nc(C)c1C | > 100 µM (inactive) |  | 46.5
COc1ccc(-c2nc3c(C)cc(Br)cn3c2Cc2ccc(C)cc2)cc1OC | > 100 µM (inactive) |  | 
CC(C)(C)S(=O)(=O)Cc1nc(-c2ccc(Cl)c(Cl)c2)cs1 |  | 38.5 | 
O=C(Nc1ccc2nc(-c3cccnc3)[nH]c2c1)c1ccco1 | > 100 µM (inactive) | > 100 | 
CSc1ccccc1C(=O)NCCc1ccc(S(=O)(=O)N2CCCCC2)cc1 | > 100 µM (inactive) |  | 
CCOc1cc(/C=C(\CC(=O)O)c2nc3ccccc3s2)ccc1OC | > 100 µM (inactive) |  | 
CN(Cc1nnc(-c2ccc(F)cc2)o1)c1ccccc1 | > 100 µM (inactive) |  | > 100
O=C(COC(=O)CNC(=O)c1ccc(F)cc1)Nc1cccc(S(=O)(=O)N2CCCC2)c1 |  |  | > 100

SMILES | AC50 | AC50 [1] [µM] | AC50 [2] [µM]
O=C(C[n+]1cc(-c2ccc(Cl)c(Cl)c2)n2c1CCC2)OCc1ccccc1 | > 100 µM (inactive) |  | > 100
Cc1ccccc1-n1nnnc1SCCCC(=O)c1ccc(F)cc1 |  | > 100 | 
Cc1nnc2sc(SCC(=O)Nc3ccc(Br)cc3)nn2c1=O | > 100 µM (inactive) | > 100 | 
CN(C)CCCN(C(=O)CCSc1ccccc1)c1nc2cc3c(cc2s1)OCO3 | > 100 µM (inactive) |  | > 100
COc1ccc(-c2cn3c(C)c(C(=O)Nc4cccc(C)n4)sc3n2)cc1 | > 100 µM (inactive) |  | > 100
Cc1nnn(C23CC4CC(CC(CC(=O)Nc5ccc(C)c(C)c5)(C4)C2)C3)n1 | > 100 µM (inactive) |  | > 100
COCCn1c(SCC(=O)Nc2ccccc2OC)nc2ccccc21 | > 100 µM (inactive) |  | 
O=[N+]([O-])c1ccc(N2CCOCC2)c2c1no[n+]2[O-] |  | 0.638 | 
O=C(CSc1nc(C2CC2)nc2ccccc12)Nc1ccccc1N1CCOCC1 | > 100 µM (inactive) |  | > 100
CC1(c2ccc3ccccc3c2)NC(=O)N(CC(=O)N2CCN(c3ccccc3O)CC2)C1=O (configuration not stated) | > 100 µM (inactive) |  | > 100
C[C@@H]1CN([C@@H](C)CO)C(=O)c2cccc(NC(=O)c3nc4ccccc4s3)c2O[C@@H]1CN(C)CC1CC1 |  |  | > 100
CCOC(=O)c1cnc2c(c(C)nn2C)c1Oc1ccc(OC)cc1 | > 100 µM (inactive) |  | 
Cc1ccc2nc(-c3ccc(Cl)cc3)c(Cc3ccccc3C(F)(F)F)n2c1 |  |  | > 100
COc1ccc(C(CC(=O)c2ccc(O)cc2)S(=O)(=O)c2ccc(C)cc2)cc1 (configuration not stated) | > 100 µM (inactive) |  | 
CCN(C(=O)CSc1cc(C)c2ccc(OC)cc2n1)C1CCS(=O)(=O)C1 (configuration not stated) | > 100 µM (inactive) | 3.93 | 
O=C(NCc1ccc2c(c1)OCO2)c1sccc1Br | > 100 µM (inactive) |  | > 100
C=CCN(CC=C)C(=O)c1ccc2nc(Cc3ccc(OC)c(OC)c3)oc2c1 | > 100 µM (inactive) |  | 
CNC(=O)c1cc(C(=O)c2ccc(C(F)(F)F)cc2F)c[nH]1 | > 100 µM (inactive) |  | > 100
CC(C)C[C@@H](CSc1ccccc1)N1CCN(CC(C)C)CCC1=O | > 100 µM (inactive) |  | > 100
COc1ccc(CNc2ncnc3cc(OC)c(OC)cc23)cc1OC | > 100 µM (inactive) |  | > 100
